According to patent publication US10413552B2, “Method of treating medulloblastoma” (THE HOSPITAL FOR SICK CHILDREN, priority 2015, dated 2019):

What was measured:
[1] = system: D425 and D458 medulloblastoma cell lines; experiment: MTS cell proliferation assay in Group 3 medulloblastoma cell lines; format: cell-based; conditions: 48 hours treatment
Description: (§1) FIG. 1 illustrates the cytotoxic effect of piperlongumine, alsterpaullone, rottlerin and flunarizine in Group 3 medulloblastoma cell lines. Established medulloblastoma cell lines (D425 and D458) and a fetal neural stem cell line (hf5281) were treated with various concentrations of (a) piperlongumine, (b) alsterpaullone, (c) rottlerin and (d) flunarizine for 48 hours. Cell viability was measured by MTS assay. Data represent mean of triplicates±SEM.
(§2) D425 and D458 cells were grown as suspension cultures and seeded in 96-well microplates at 10,000 cells per well. Fetal normal human brain cells (hf5281) were grown as an adherent culture and seeded in 96-well microplates at 4,000 and 5,000 cells per well. Cells were treated for 48 h with different concentrations of Piperlongumine (PL; INDOFINE Chemical Company), alsterpaullone (ALP; A, G. Scientific), rottlerin (RTL; A. G. Scientific) and flunarizine (FZ; Sigma) or DMSO (control). Cell viability was determined by MTS proliferation assay (3-(4,5-dimethylthiazol-2-yl)-5-(3-carboxymethoxyphenyl)-2-(4-sulfophenyl)-2H-tetrazolium) and the absorbance was measured at 490 nm (CellTiter 96 Aqueous One Solution Reagent; Promega). Three independent experiments were performed with 16 repeats per treatment condition.

[2] = system: hf5281 fetal normal human brain cells; experiment: MTS cell proliferation assay in fetal normal human brain cells; format: cell-based; conditions: hf5281, up to the highest concentration tested of 10 μM
Description: as §1, §2

[3] = system: D458 cerebellar xenografts; experiment: D458 intracranial medulloblastoma xenograft; format: in vivo, athymic nude mice; conditions: for medulloblastoma growth (bioluminescence imaging, H&E): D458-luciferase xenograft, vs DMSO-treated controls; for medulloblastoma growth (bioluminescence imaging, H&E) / survival: s.c. for 2 weeks; for survival / survival difference, log-rank test p: D458 xenograft; for survival: Kaplan-Meier; for survival difference, log-rank test p: vs vehicle control
Description: (§3) Medulloblastoma intracranial xenografts were established in 5-6 week old athymic nude mice (Charles River Laboratories). Medulloblastoma cells (250,000 D425 and D458 cells) were implanted in the right cerebellum of mice. Six days after cell inoculation, animals were randomized into treatment cohorts, which included subcutaneous injections with vehicle control (10% DMSO), PL (50 mg/kg, daily for 2 weeks), ALP (30 mg/kg, daily for 2 weeks), RTL (20 mg/kg, every other day for 2 weeks) or FZ (50 mg/Kg, daily for 2 weeks).
In animals bearing D458-GFP/Luciferase xenografts, bioluminescence imaging was performed at 6 days after intracranial injection. Mice with a detectable signal were included in the study and tumor growth was monitored at one-week intervals using the IVIS Spectrum Optical In-vivo Imaging System (Caliper Life Sciences).
(§4) Animals with progressive neurological signs or weight loss greater than 20% were euthanized and the brains harvested and fixed in 10% formalin.
(§5) The Kaplan-Meier estimate and a log-rank test were used to generate survival curves. Experiments were performed in triplicate and results were expressed as mean±SEM. Statistical analysis was performed using GraphPad Prism 5 Software.
The efficacy of PL, ALP, RTL and FZ in established medulloblastoma xenografts representative of Group 3 medulloblastomas was then determined. D458 cells expressing luciferase were implanted in the right cerebellum of nude mice and bioluminescence imaging was performed at 6 days post inoculation. Animals with a detectable signal were treated by subcutaneous injection with PL (50 mg/kg, daily for 2 weeks), ALP (30 mg/kg, daily for 2 weeks), RTL (20 mg/kg, every other day for 2 weeks), FZ (50 mg/Kg, daily for 2 weeks) or vehicle control (10% DMSO).

[4] = system: D425 cerebellar xenografts; experiment: D425 intracranial medulloblastoma xenograft; format: in vivo, athymic nude mice; conditions: for survival: Kaplan-Meier; for medulloblastoma growth (H&E): vs control group
Description: as §3, §4, §5

[5] = system: D425 and D458 medulloblastoma cells; experiment: Western blot, induction of apoptosis; format: cell-based; conditions: 48 h treatment
Description: (§6) Cell lysates were prepared by adding RIPA buffer (Sigma) containing protease inhibitors (F. Hoffman-La Roche AG), 0.2 M sodium orthovanadate, 0.2 M sodium pyrophosphate and 0.2 M sodium fluoride. The Pierce BCA Protein Assay Kit (Thermo Scientific) was used to determine protein concentration. […] The following antibodies were used: PARP (1:1,000; Cell Signaling), AKT (1:1,000; Cell Signaling), phospho-AKT (1:2,000; Ser473, Cell Signaling), α-tubulin (1:1,000; Cell Signaling), anti-mouse IgG conjugated to horseradish peroxidase (1:5,000; Amersham Biosciences) and anti-rabbit IgG conjugated to horseradish peroxidase (1:5,000; Cell Signaling).
(§7) To determine the mechanisms by which PL and ALP exert their antitumor effect, D425 and D458 medulloblastoma cells were treated with both drugs for 48 h.

AKT pathway = experiment: Western blot, AKT pathway inhibition; format: cell-based; conditions: 48 h treatment, D458 and D425 cells
Description: as §6, §7

[6] = system: D425 and D458 medulloblastoma cells; experiment: Gene expression profiling and Gene Set Enrichment Analysis (GSEA) after treatment; format: cell-based, human
Description: D425 and D458 medulloblastoma cells were treated with 5 μM of PL, 5 μM of ALP or DMSO (control) for 48 h. RNA isolation was performed using the RNeasy Mini Kit (Qiagen) and gene expression data were generated using the Human PrimeView Arrays. Gene Set Enrichment Analysis (GSEA) was performed using gene sets from the National Cancer Institute (NCI), Gene Ontology (GO), Kyoto Encyclopedia of Genes and Genomes (KEGG), Protein Families (PFAM) and Biocarta pathway databases. Significant gene sets were identified (FDR<0.05; p<0.01) and visualized in Cytoscape and Enrichment Map software.
To identify downstream transcriptional events induced by ALP, genomic profiling of Group 3 medulloblastoma cell lines (D425 and D458) was conducted after treatment for 48 hours. […] Gene Set Enrichment Analysis (GSEA) was performed with gene sets compiled from the National Cancer Institute (NCI), Gene Ontology (GO), Kyoto Encyclopedia of Genes and Genomes (KEGG), Protein Families (PFAM) and Biocarta pathway databases. To visualize significant gene sets (FDR<0.05; p<0.01) as interaction networks, Cytoscape and Enrichment Map were used.

[7] = D425 and D458, 5 μM, 48 h vs DMSO, rank 1
[8] = D425 and D458, 5 μM, 48 h vs DMSO, rank 2
[9] = D425 and D458, 5 μM, 48 h vs DMSO, rank 3
[10] = D425 and D458, 5 μM, 48 h vs DMSO, rank 4
[11] = D425 and D458, 5 μM, 48 h vs DMSO, rank 5
[12] = D425 and D458, 5 μM, 48 h vs DMSO, rank 6
[13] = D425 and D458, 5 μM, 48 h vs DMSO, rank 7
[14] = D425 and D458, 5 μM, 48 h vs DMSO, rank 8
[15] = D425 and D458, 5 μM, 48 h vs DMSO, rank 9
[16] = D425 and D458, 5 μM, 48 h vs DMSO, rank 10

Structure (SMILES): O=C1Cc2c([nH]c3ccc([N+](=O)[O-])cc23)-c2ccccc2N1 [alsterpaullone, 9-nitro-7,12-dihydroindolo-[3,2-d][1]benzazepin-6(5)-one]
- concentration at which cell proliferation was reduced [1]: 1 µM
- reduction in cell proliferation [2]: little reduction in cell proliferation
- medulloblastoma growth (bioluminescence imaging, H&E) [3]: Marked reduction in medulloblastoma growth
- survival [3]: significant increase in survival
- survival difference, log-rank test p [3]: 0.0043
- survival [4]: significantly increase survival
- medulloblastoma growth (H&E) [4]: reduce medulloblastoma growth
- apoptosis (Western blot) [5]: induced apoptosis
- AKT pathway activation (Western blot) (AKT pathway): potently inhibited AKT pathway activation at lower concentrations than PL
- GSEA enriched pathway Cell Cycle Mitotic: Regulation [6, 7]: Down-Regulated
- GSEA enriched pathway Systemic Lupus Erythematosus: Regulation [6, 7]: Up-Regulated
- GSEA enriched pathway Mitotic M M G1 Phases: Regulation [6, 8]: Down-Regulated
- GSEA enriched pathway RNA Pol 1 Promoter Opening: Regulation [6, 8]: Up-Regulated
- GSEA enriched pathway Amyloids: Regulation [6, 9]: Up-Regulated
- GSEA enriched pathway Mitotic Prometaphase: Regulation [6, 9]: Down-Regulated
- GSEA enriched pathway DNA Replication: Regulation [6, 10]: Down-Regulated
- GSEA enriched pathway Packaging of Telomere Ends: Regulation [6, 10]: Up-Regulated
- GSEA enriched pathway G2 M Checkpoints: Regulation [6, 11]: Down-Regulated
- GSEA enriched pathway Olfactory Signaling Pathway: Regulation [6, 11]: Up-Regulated
- GSEA enriched pathway Autoimmune Thyroid Disease: Regulation [6, 12]: Up-Regulated
- GSEA enriched pathway Metabolism of Non Coding RNA: Regulation [6, 12]: Down-Regulated
- GSEA enriched pathway Activation of the Pre Replicative Complex: Regulation [6, 13]: Down-Regulated
- GSEA enriched pathway Asthma: Regulation [6, 13]: Up-Regulated
- GSEA enriched pathway Cell Cycle: Regulation [6, 14]: Down-Regulated
- GSEA enriched pathway Class A1 Rhodopsin Like Receptors: Regulation [6, 14]: Up-Regulated
- GSEA enriched pathway Activation of ATR in Response to Replication Stress: Regulation [6, 15]: Down-Regulated
- GSEA enriched pathway Immunoregulatory Interactions Between a lymphoid and a non lymphoid Cell: Regulation [6, 15]: Up-Regulated
- GSEA enriched pathway Cell Cycle Checkpoints: Regulation [6, 16]: Down-Regulated
- GSEA enriched pathway RNA Pol 1 Transcription: Regulation [6, 16]: Up-Regulated
- gene expression change vs DMSO-treated cells ([6]; D425 and D458, 48 hours, MYC, CDK7, RB1, CDK6, CCNB1, CDK5RAP2, CDK1, CDKN2C): down-regulation of genes involved in cell cycle

Structure (SMILES): CC(=O)c1c(O)c(C)c(O)c(Cc2c(O)c3c(c(C(=O)/C=C/c4ccccc4)c2O)OC(C)(C)C=C3)c1O [rottlerin]
- concentration at which cell proliferation was reduced [1]: 5 µM
- reduction in cell proliferation [2]: little reduction in cell proliferation
- medulloblastoma growth (bioluminescence imaging, H&E) [3]: Marked reduction in medulloblastoma growth
- survival [3]: significant increase in survival
- survival difference, log-rank test p [3]: 0.0262

Structure (SMILES): Fc1ccc(C(c2ccc(F)cc2)N2CCN(C/C=C/c3ccccc3)CC2)cc1 [flunarizine]
- survival [3]: not able to prolong survival

Structure (SMILES): COc1cc(/C=C/C(=O)N2CCC=CC2=O)cc(OC)c1OC [piperlongumine]
- concentration at which cell proliferation was reduced [1]: 5 µM
- reduction in cell proliferation [2]: little reduction in cell proliferation
- medulloblastoma growth (bioluminescence imaging, H&E) [3]: Marked reduction in medulloblastoma growth
- survival [3]: significant increase in survival
- survival difference, log-rank test p [3]: 0.0011
- survival [4]: significantly increase survival
- medulloblastoma growth (H&E) [4]: reduce medulloblastoma growth
- apoptosis (Western blot) [5]: induction of apoptosis
- AKT pathway activation (Western blot) (AKT pathway): AKT pathway inhibition
